The source of these data is patent publication US11730714B2, “Compounds for the treatment of neuromuscular disorders” (NMD PHARMA A/S, priority 2017, dated 2023).

Where two headings read alike, the source gives them in different places. Where only a bound is given, the exact number is not on record here.

Holding throughout (type): cell-based
The target of one assay is T1, CIC-1 channels (Rattus norvegicus, UniProt P35524).
T1 construct: Gm was measured in individual fibres of whole rat soleus muscles; from tissue; host or cells: soleus muscle of adult (12-14 week old) Wistar rats
T1 sequence (P35524 1-994): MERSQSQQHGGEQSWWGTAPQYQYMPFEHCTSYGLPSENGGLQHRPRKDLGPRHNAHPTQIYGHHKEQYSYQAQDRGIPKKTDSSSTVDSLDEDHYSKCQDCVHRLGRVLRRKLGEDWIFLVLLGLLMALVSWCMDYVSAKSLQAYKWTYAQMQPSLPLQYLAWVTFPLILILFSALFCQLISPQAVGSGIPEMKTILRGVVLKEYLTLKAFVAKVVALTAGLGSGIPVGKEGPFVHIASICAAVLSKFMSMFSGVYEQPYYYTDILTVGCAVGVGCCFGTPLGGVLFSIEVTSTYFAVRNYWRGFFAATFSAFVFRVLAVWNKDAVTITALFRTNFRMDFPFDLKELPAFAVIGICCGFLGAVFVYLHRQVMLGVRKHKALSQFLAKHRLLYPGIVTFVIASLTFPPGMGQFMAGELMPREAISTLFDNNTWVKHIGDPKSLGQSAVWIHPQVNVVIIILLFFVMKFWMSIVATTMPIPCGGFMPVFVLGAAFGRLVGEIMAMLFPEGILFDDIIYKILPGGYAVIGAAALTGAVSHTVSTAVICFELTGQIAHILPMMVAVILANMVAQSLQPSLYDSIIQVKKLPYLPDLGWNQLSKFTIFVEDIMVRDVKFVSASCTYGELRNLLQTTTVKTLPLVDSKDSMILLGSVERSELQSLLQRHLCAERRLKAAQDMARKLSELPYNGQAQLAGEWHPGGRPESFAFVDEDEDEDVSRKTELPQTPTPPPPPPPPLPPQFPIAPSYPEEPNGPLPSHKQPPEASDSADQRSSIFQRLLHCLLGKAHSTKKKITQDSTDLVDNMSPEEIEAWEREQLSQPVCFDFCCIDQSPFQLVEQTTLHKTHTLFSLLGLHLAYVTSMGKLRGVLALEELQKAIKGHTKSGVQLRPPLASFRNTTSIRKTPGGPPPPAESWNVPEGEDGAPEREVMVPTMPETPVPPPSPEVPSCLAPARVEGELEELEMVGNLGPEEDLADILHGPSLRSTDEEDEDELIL
The experiment in a line: Electrophysiological measurement of compound inhibition of CIC-1 in rat muscle (Gm, EC50). Particulars: rat soleus muscle fibres.

A further assay addresses T2, human CIC-1 channels (Homo sapiens, UniProt P35523).
T2 construct: host or cells: CHO (Chinese hamster ovary) cells, cryopreserved, used directly after thawing
The experiment in a line: Automated patch-clamp on human CIC-1 expressed in CHO cells (shift in half activation voltage V1/2). The conditions noted are these: compound in intracellular solution vs vehicle control patches; CHO cells expressing human ClC-1. How it is done: FIG. 13A-13B: FIG. 13A illustrates the voltage protocol used to evoke currents in whole cell patches of CHO cells expressing human CIC-1 channels.
The investigatory goal of these experiments was to evaluate how compounds affect the open probability and current amplitude of human CIC-1 channels expressed in CHO cells. Experiments were performed using an automated patch clamp system that allowed high throughput testing of whole cell patches together with both intracellular and extracellular addition of compound.
Automated whole cell patch clamp experiments were performed with the Qpatch 16 system (Sophion Bioscience, Ballerup, Denmark) at room temperature. Data acquisition and analysis were performed in the Qassay software (ver. 5.6, Odense).
To obtain tail currents, the membrane potential was stepped to −100 mV after each test voltage for 300 ms and then relaxed to −30 mV for 2 sec between sweeps (FIG. 3). I/V relationships for whole cell instant and steady state current amplitudes were obtained by plotting average current densities at the beginning and at the end of the 300 ms step against the membrane potential (FIG. 4).
In order to determine the relative overall open probability (Po), the instantaneous tail currents were normalized to the maximal tail current obtained following the most positive voltage step and plotted against the test voltage. Plots of normalized tail currents from each whole cell patch were then fitted to a Boltzmann function allowing determination of half activation voltages (V1/2, FIG. 5).
Osmolality adjusted to […] using sucrose.
Intracellular solutions contained: 80 mM […], 60 mM CsCl, 5/1 mM KOH/EGTA, 10 mM HEPES, 10 mM NaCl, pH adjusted to 7.2 with NaOH (2 M). Osmolality adjusted to ˜320 mOsm using sucrose.
Cells used in patch clamp experiments were Chinese hamster ovary cells (CHO) constitutively expressing human CIC-1 channels. The amino acid sequence encoded by the cDNA used to create this cell line was identical to the translated sequence for GenBank accession number NM_000083.2. Cells were produced by Charles River (Catalogue CT6175, Cleveland Ohio, USA) in a cryopreserved format. Experiments were performed on the cells directly after thawing (3×10^6 cells used in each experiment).
To evaluate the compound effect on CIC-1, when applied directly to the intracellular side of the cell membrane, the half activation voltage, V1/2, was determined from whole cell patches with compound added to the intracellular solution and then compared to V1/2 determined from control cell patches with only vehicle added to the intracellular solution. Additionally, the effect of extracellular added compound was evaluated by determine V1/2 and steady state current amplitudes before and after exchanging the extracellular solution to contain compound.
The difference in half activation voltage of CIC-1 channels, […]V1/2, was determined as the difference between the cell patches treated intracellularly with compound and control cells patches and is reported in Table 4 below. A positive shift in […]V1/2 is reflecting CIC-1 channel inhibition by the tested compound. P-values of <0.05 is considered significant.
(In patch-clamp work, channel activity is measured electrically.)

Assay [1] concerns isolated rat soleus muscles. Briefly: Recovery of nerve-stimulated force in isolated rat soleus muscles exposed to sub-maximal tubocurarine. How it is done: Experiments were performed using rat soleus muscles from either young (4-wk-old) or adult Wistar rats (12-14-week-old). Animal handling, killing and isolation of muscle is described elsewhere All experiments were performed using normal Krebs-Ringer bicarbonate solution (NKR). In solutions with elevated Mg^2+, MgCl2 was added to NKR-solution causing minor increases in osmolarity and ionic strength. In solutions with elevated K^+, 4 mM NaCl was replaced by 4 mM KCl in the NKR.
In all contraction experiments, isometric force production was determined and force produced during contractions was quantified by measuring the integral of the force response (AUC). Stimulation and force recordings have been described elsewhere. […] In these latter experiments, extracellular recordings of action potentials (M-waves) could be measured without temporal overlap with stimulation artefacts.
The aim was to find compounds that by inhibition of CIC-1 channels can recover nerve-stimulated force under conditions of fatigue including conditions where fatigue is caused by compromised neuromuscular transmission. Neuromuscular transmission dysfunction can develop because of both pre- and/or post-synaptic complications in connection with a disorder or as part of neuromuscular blockade during/after surgery. In the initial series of drug testing, experiments were performed with isolated muscles in the presence of sub-maximal ACh receptor antagonist tubocurarine. Since the inclusion of tubocurarine caused a partial loss of neuromuscular transmission this experiment mimics the conditions in myasthenia gravis and neuromuscular blockade. To mimic conditions with pre-synaptic complication (Lambert Eaton syndrome, motor neuron disorder, polyneuropathy) the intact nerve-muscle preparations were incubated at elevated extracellular Mg^2+, which is known to suppress release of ACh from nerve terminals of motor neurons.
The experiments also illustrate that field stimulation of the entire nerve-muscle preparation selectively activates the motor nerve when short-duration pulses (0.02 vs 0.2 ms) were used. In FIG. 1A the preparation was stimulated either via field stimulation or via nerve-stimulation using a suction electrode. With the suction electrode only the nerve could be stimulated. When exposed to a submaximal concentration of the ACh receptor antagonist tubocurarine (0.2 μM) a clear drop in peak force and a further decline (or fade) in force during the stimulation developed. This drop in force clearly reflected compromised neuromuscular transmission, as the decline in peak force and fading were not seen with direct stimulation of the muscle. […] Thus, loss of M-wave and force with tubocurarine reflected partial blockade of neuromuscular function. Such fading of force and M-waves during stimulation represent clinical hallmarks of both myasthenia gravis and neuromuscular blockade in connection with surgery. In FIG. 1B, observations with normal (0.2 ms) and short-duration (0.02 ms) pulses have been compared. It can be seen that only with short-duration pulses did tubocurarine cause a decline in peak force and fading (FIG. 1B). This confirms that short-duration pulses in field stimulation could be used as specific nerve-stimulation. […] Elevated extracellular Mg^2+ could thus be used to partially block neuromuscular transmission and thus be used as a model of conditions with compromised pre-synaptic function (Lambert Eaton syndrome, amyotrophic lateral sclerosis, spinal muscular atrophy). […]

[2] abbreviates: three micro-electrode Gm measurement, read-out: EC50 (inhibition of ClC-1 ion channel, Gm).

T2 sequence (P35523 whole entry): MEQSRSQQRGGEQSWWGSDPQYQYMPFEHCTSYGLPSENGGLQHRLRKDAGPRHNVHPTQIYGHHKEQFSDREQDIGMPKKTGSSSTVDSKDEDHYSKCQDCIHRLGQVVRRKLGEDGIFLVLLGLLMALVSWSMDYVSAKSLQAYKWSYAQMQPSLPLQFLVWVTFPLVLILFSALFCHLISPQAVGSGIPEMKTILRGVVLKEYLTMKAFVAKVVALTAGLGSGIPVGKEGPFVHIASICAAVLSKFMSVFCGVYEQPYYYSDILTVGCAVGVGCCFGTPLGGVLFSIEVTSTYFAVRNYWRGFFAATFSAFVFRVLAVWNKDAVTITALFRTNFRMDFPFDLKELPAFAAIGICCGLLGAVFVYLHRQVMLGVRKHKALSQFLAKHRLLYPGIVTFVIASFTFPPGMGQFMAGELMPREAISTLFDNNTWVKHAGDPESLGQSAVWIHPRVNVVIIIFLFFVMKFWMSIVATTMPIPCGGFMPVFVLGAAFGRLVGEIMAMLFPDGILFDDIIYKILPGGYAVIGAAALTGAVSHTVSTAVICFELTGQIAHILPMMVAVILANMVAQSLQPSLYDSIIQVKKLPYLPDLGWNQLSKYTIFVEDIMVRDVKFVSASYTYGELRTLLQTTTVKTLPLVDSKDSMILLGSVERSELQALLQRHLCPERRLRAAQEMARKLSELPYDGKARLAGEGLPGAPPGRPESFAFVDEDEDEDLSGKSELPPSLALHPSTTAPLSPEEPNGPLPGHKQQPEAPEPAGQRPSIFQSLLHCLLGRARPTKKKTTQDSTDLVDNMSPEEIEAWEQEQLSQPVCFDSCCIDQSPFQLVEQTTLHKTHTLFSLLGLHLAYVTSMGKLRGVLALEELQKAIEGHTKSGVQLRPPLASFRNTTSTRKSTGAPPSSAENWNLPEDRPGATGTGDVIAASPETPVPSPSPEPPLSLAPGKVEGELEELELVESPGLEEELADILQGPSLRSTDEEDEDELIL

Take `CC(C)[C@@H](Oc1ccc(Br)cc1F)C(=O)O` [Compound A-4, (2R)-2-(4-bromo-2-fluoraphenoxy)-3-methylbutanoic acid]: the EC50 (as a rule, the concentration that produces a half-maximal response) at CIC-1 channels (sigmoidal fit of average Gm, read-out: EC50 (inhibition of CIC-1, reduction of Gm)) was more than 80 µM.
`[2H]c1cc(Br)cc([2H])c1O[C@@H](C)C(=O)O` [Compound A-6, (2S)-2-[4-bromo(2,6-^2H2)phenoxy]propanoic acid]: at human CIC-1 channels, the “ΔV½ (difference in half activation voltage of ClC-1)” value was found to be 13.0 mV.
As to `C[C@H](Oc1ccc(Br)cc1I)C(=O)O` [Compound A-8, (2S)-2-(4-bromo-2-iodophenoxy)propanoic acid], the “ΔV½ (difference in half activation voltage of ClC-1)” value on human CIC-1 channels is on record as 9.4 mV.
In the case of `O=C(O)[C@@H](Oc1ccc(Br)cc1F)C(F)F` [Compound A-9, (2R)-2-(4-bromo-2-fluorophenoxy)-3,3-difluoropropanoic acid], on human CIC-1 channels, the “ΔV½ (difference in half activation voltage of ClC-1)” value was 15.2 mV.
For `O=C(O)[C@H](CF)Oc1ccc(Br)cc1` [Compound A-26, (2R)-2-(4-bromophenoxy)-3-fluoropropanoic acid], the “ΔV½ (difference in half activation voltage of ClC-1)” value at human CIC-1 channels turned out to be 19.7 mV.
`CC(C)[C@H](Oc1ccc(Br)cc1F)C(=O)O` [Compound A-27, (2S)-2-(4-bromo-2-fluorophenoxy)-3-methylbutanoic acid]: on human CIC-1 channels, the “ΔV½ (difference in half activation voltage of ClC-1)” value was found to be 20.2 mV.
Regarding `C[C@H](Oc1ccc(Cl)cc1F)C(=O)O` [Compound A-38, (2S)-2-(4-chloro-2-fluorophenoxy)propanoic acid], the “ΔV½ (difference in half activation voltage of ClC-1)” value at human CIC-1 channels was 17.4 mV.
In the case of `C[C@H](Oc1ccc(Br)cc1Br)C(=O)O` [Compound A-40, (2S)-2-(2,4-dibromophenoxy)propanoic acid], on human CIC-1 channels, the “ΔV½ (difference in half activation voltage of ClC-1)” value was 5.19 mV.
On to `CC[C@H](Oc1ccc(Br)cc1F)C(=O)O` [Compound A-58, (2S)-2-(4-bromo-2-fluorophenoxy)butanoic acid], for which, on human CIC-1 channels, the “ΔV½ (difference in half activation voltage of ClC-1)” value worked out at 28.2 mV.
For `C#CC[C@H](Oc1ccc(Br)cc1Br)C(=O)O` [Compound A-66, (2S)-2-(2,4-dibromophenoxy)pent-4-ynoic acid], at human CIC-1 channels, the “ΔV½ (difference in half activation voltage of ClC-1)” value was determined as 27.4 mV.
Turning to `C#CC[C@H](Oc1ccc(Br)cc1Cl)C(=O)O` [Compound A-67, (2S)-2-(4-bromo-2-chlorophenoxy)pent-4-ynoic acid], the “ΔV½ (difference in half activation voltage of ClC-1)” value on human CIC-1 channels is given as 37.8 mV.
Still for that read-out and setting: as for `C#CC[C@H](Oc1ccc(Br)cc1F)C(=O)O` [Compound A-69, (2S)-2-(4-bromo-2-fluorophenoxy)pent-4-ynoic acid], the figure is 32.6 mV; as for `COC[C@H](Oc1ccc(Br)cc1Br)C(=O)O` [Compound A-74, (2S)-2-(2,4-dibromophenoxy)-3-methoxypropanoic acid], 10.4 mV.
As to `[2H]CC([2H])[C@H](Oc1ccc(Br)cc1)C(=O)O` (stereo partly drawn) [Compound A-76, (2S)-2-(4-bromophenoxy)(3,4-^2H2)butanoic acid], the “ΔV½ (difference in half activation voltage of ClC-1)” value at human CIC-1 channels is on record as 26.2 mV. The EC50 at CIC-1 channels (setting [2]) came to 3.8 ± 2.1 µM.
Take `[2H][C@@](CF)(Oc1ccc(Br)cc1)C(=O)O` [Compound A-82, (2R)-2-(4-bromophenoxy)-3-fluoro(2-^2H)propanoic acid]: the “ΔV½ (difference in half activation voltage of ClC-1)” value at human CIC-1 channels amounted to 19.0 mV. Besides, the EC50 on CIC-1 channels (setting [2]) was determined as 5.2 ± 1.3 µM.
With `O=C(O)[C@H](CCF)Oc1ccc(Br)cc1F` [Compound A-85, (2S)-2-(4-bromo-2-fluorophenoxy)-4-fluorobutanoic acid], the “ΔV½ (difference in half activation voltage of ClC-1)” value at human CIC-1 channels was 12.5 mV.
With `O=C(O)[C@H](CCF)Oc1ccc(Br)cc1` [Compound A-87, (2S)-2-(4-bromophenoxy)-4-fluorobutanoic acid], on human CIC-1 channels, the “ΔV½ (difference in half activation voltage of ClC-1)” value turned out to be 16.4 mV.
With `O=C(O)[C@@H](Oc1ccc(Br)cc1F)C1CC1` [Compound A-89, (2S)-2-(4-bromo-2-fluorophenoxy)-2-cyclopropylacetic acid], the “ΔV½ (difference in half activation voltage of ClC-1)” value at human CIC-1 channels came to 10.3 mV.
As to `C[C@@H](F)[C@H](Oc1ccc(Br)cc1F)C(=O)O` [Compound A-95, (2R,3R)-2-(4-bromo-2-fluorophenoxy)-3-fluorobutanoic acid], the “ΔV½ (difference in half activation voltage of ClC-1)” value at human CIC-1 channels amounted to 10.3 mV.
For `CC(Oc1ccc(Cl)cc1)C(=O)Oc1ccc(Cl)cc1` (centres unmarked) [Compound C11, 4-chlorophenyl 2-(4-chlorophenoxy)propanoate], in assay [1], the “50 μM % change after addition (AUC of nerve-stimulated force)” value is reported as 46% and the “150 μM % change after addition (AUC of nerve-stimulated force)” value is on record as 54%.
